Molecules are shown by their SMILES.

A word on the Ki: it is the equilibrium dissociation constant of an inhibitor or competing ligand from its target.

The target of the first experiment is T1, human glucocorticoid receptor (Homo sapiens, UniProt P04150).
T1 construct: purified human recombinant full-length glucocorticoid receptor (2 nM); purchased Invitrogen Part #2893
T1 sequence (P04150 1-777): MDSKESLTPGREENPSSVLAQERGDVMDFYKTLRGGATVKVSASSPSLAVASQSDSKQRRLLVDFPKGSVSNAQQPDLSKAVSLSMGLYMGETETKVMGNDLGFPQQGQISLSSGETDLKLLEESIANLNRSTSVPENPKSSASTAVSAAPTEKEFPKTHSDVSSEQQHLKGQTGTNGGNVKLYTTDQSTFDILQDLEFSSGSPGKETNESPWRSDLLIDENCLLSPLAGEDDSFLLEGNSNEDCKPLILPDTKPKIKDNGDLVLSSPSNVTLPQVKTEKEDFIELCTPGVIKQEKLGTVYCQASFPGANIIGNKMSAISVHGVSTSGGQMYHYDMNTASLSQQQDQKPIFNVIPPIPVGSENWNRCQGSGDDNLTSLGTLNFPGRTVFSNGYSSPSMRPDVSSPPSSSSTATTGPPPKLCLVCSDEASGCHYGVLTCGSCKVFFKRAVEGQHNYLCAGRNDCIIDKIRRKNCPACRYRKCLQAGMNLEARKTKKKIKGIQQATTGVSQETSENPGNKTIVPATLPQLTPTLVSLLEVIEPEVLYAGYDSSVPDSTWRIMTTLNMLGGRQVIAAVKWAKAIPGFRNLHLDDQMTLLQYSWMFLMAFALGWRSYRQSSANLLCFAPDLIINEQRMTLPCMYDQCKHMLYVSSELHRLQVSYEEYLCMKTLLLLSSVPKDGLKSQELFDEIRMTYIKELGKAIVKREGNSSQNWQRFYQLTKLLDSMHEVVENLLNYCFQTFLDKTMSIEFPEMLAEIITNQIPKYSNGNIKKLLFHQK
The experiment is described as follows: Glucocorticoid Receptor Binding Assay (I), fluorescence polarization competitor kit. Conditions: purified human recombinant full-length GR, Fluormone GS Red. An outline of the steps: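 Fluorescence polarization competition of purified recombinant full-length human GR (2 nM) with 1 nM Fluormone GS Red, incubated 2 h at room temperature in the dark. Normalized to vehicle (0%) and 5 μM dexamethasone (100%) as % relative binding activity. Compounds tested 8.5E-05 to 5 μM.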
Background: Polarisation of emitted light reports the rotation of a fluorescent probe.
As to `C[C@H](C(=O)Nc1nncs1)[C@H](c1cccc(F)c1)c1ccc(-c2ccc(C(=O)N3CCOCC3)c(Cl)c2)s1` [Example 127, (2S,3R)-3-(5-(3-chloro-4-(4-morpholinylcarbonyl)phenyl)-2-thienyl)-3-(3-fluorophenyl)-2-methyl-N-1,3,4-thiadiazol-2-ylpropanamide], the inhibition constant Ki turned out to be 148 nM. For the compound `C[C@H](C(=O)Nc1nncs1)[C@H](c1cccc(F)c1)c1ccc(-c2ccc(C(=O)N(C)C)cc2)s1` [Example 128, 4-(5-((1R,2S)-1-(3-fluorophenyl)-2-methyl-3-oxo-3-(1,3,4-thiadiazol-2-ylamino)propyl)-2-thienyl)-N,N-dimethylbenzamide], the Ki worked out at 277 nM. The same measure, in the same setting: as for `C[C@@H](C(=O)Nc1nncs1)[C@@H](c1cccc(F)c1)c1ccc(-c2ccc(C(=O)N(C)C)c(Cl)c2)s1` [Example 129, 2-chloro-4-(5-((1S,2R)-1-(3-fluorophenyl)-2-methyl-3-oxo-3-(1,3,4-thiadiazol-2-ylamino)propyl)-2-thienyl)-N,N-dimethylbenzamide], the figure is 158 nM. On the same count and under the same terms, as for `C[C@@H](C(=O)Nc1nncs1)[C@@H](c1cccc(F)c1)c1ccc(-c2ccc(C(=O)N3CCOCC3)c(Cl)c2)s1` [Example 130, (2R,3S)-3-(5-(3-chloro-4-(4-morpholinylcarbonyl)phenyl)-2-thienyl)-3-(3-fluorophenyl)-2-methyl-N-1,3,4-thiadiazol-2-ylpropanamide], the figure is 160 nM; as for `C[C@@H](C(=O)Nc1nncs1)[C@@H](c1cccc(F)c1)c1ccc(-c2ccc(C(=O)N(C)C)cc2)s1` [Example 131, 4-(5-((1S,2R)-1-(3-fluorophenyl)-2-methyl-3-oxo-3-(1,3,4-thiadiazol-2-ylamino)propyl)-2-thienyl)-N,N-dimethylbenzamide], 236 nM; as for `C[C@H](C(=O)Nc1nncs1)[C@@H](c1ccccc1)c1ccc(Br)s1` [Example 133, (2S,3S)-3-(5-bromo-2-thienyl)-2-methyl-3-phenyl-N-1,3,4-thiadiazol-2-ylpropanamide], 4.85 nM. Still for that read-out and setting: next, `C[C@@H](C(=O)Nc1nncs1)[C@H](c1ccccc1)c1ccc(Br)s1` [Example 136, (2R,3R)-3-(5-bromo-2-thienyl)-2-methyl-3-phenyl-N-1,3,4-thiadiazol-2-ylpropanamide]: 1.98 nM; `C[C@H](C(=O)Nc1nncs1)[C@@H](c1ccccc1)c1ccc(-c2ccc(C(=O)N(C)C)cc2)s1` [Example 137, N,N-dimethyl-4-(5-((1S,2S)-2-methyl-3-oxo-1-phenyl-3-(1,3,4-thiadiazol-2-ylamino)propyl)-2-thienyl)benzamide]: 4.73 nM.

As to `CCN(C)C(=O)c1ccc(-c2ccc([C@@H](c3cccc(F)c3)[C@@H](C)C(=O)Nc3ncc(C)s3)s2)cc1` [Example 142, N-ethyl-4-(5-((1R,2R)-1-(3-fluorophenyl)-2-methyl-3-((5-methyl-1,3-thiazol-2-yl)amino)-3-oxopropyl)-2-thienyl)-N-methylbenzamide], the Ki came out at 3.2 nM.

The next experiment concerns the target T2, human full-length glucocorticoid receptor (Homo sapiens, UniProt P04150).
T2 construct: recombinantly expressed human full-length glucocorticoid receptor; purchased PanVera Co., Madison, Wis; P2816
T2 sequence (P04150 1-777): T1 sequence (P04150 1-777)
The experiment is described as follows: Glucocorticoid Receptor Binding Assay (II), fluorescence polarization competitor kit. The conditions noted are these: 1 h, % Relative Binding Affinity to dexamethasone, read-out: GR (% RBA* @ 10 μM) (GR Binding Assay (II)b). How it is done: Glucocorticoid Receptor Binding Assay (II)^b
In order to measure the binding of compounds on the glucocorticoid receptor a commercially available kit was used (Glucocorticoid receptor competitor assay kit, PanVera Co., Madison, Wis., P2816). Briefly, a cell lysate containing recombinantly expressed human full-length glucocorticoid receptor was mixed with a fluorescently labeled glucocorticoid (1 nM Fluormone GS1) in the presence or absence of test compound. After one hour at room temperature, the fluorescence polarization (FP) of the samples were measured. The FP of a mixture of receptor, fluorescent probe (i.e. Fluormone GS1) and 1 mM dexamethasone represented background fluorescence or 100% inhibition, whereas, the FP of the mixture without dexamethasone was taken to be 100% binding. The percentage inhibition of test molecules were then compared to the sample with 1 mM dexamethasone and expressed as % relative binding activity with dexamethasone being 100% and no inhibition is 0%. Test molecules were analyzed in the concentration range from 2.4 nM to 40 microMolar.
As for `CC(C)(C(=O)Nc1nccs1)C(c1ccccc1)c1ccc(N2CCOCC2)nc1` (single isomer, unassigned) [Example 20, 2,2-Dimethyl-3-(6-(4-morpholinyl)-3-pyridinyl)-3-phenyl-N-1,3-thiazol-2-ylpropanamide], the percent relative binding activity vs dexamethasone at 10 µM came out at 152%.

For the compound `CC(C)(C(=O)Nc1nncs1)C(c1ccccc1)c1ccc(N2CCOCC2)nc1` (single isomer, unassigned) [Example 22, 2,2-Dimethyl-3-(6-(4-morpholinyl)-3-pyridinyl)-3-phenyl-N-1,3,4-thiadiazol-2-ylpropanamide], the percent relative binding activity vs dexamethasone at 10 µM turned out to be 477%. In the case of `CC(C)(C(=O)Nc1nncs1)C(c1cccc(F)c1)c1ccc(Br)s1` (stereo not shown) [Example 1, 3-(5-Bromo-2-thienyl)-3-(3-fluorophenyl)-2,2-dimethyl-N-1,3,4-thiadiazol-2-ylpropanamide], the percent relative binding activity vs dexamethasone at 10 µM was determined as 6.4%. The same measure, in the same setting: as for `CC(C)(C(=O)Nc1nccs1)C(c1cccc(F)c1)c1ccc(Br)s1` (stereo not shown) [Example 2, 3-(5-bromo-2-thienyl)-3-(3-fluorophenyl)-2,2-dimethyl-N-1,3-thiazol-2-ylpropanamide], the figure is 10.1%; as for `CC(C)(C(=O)Nc1nncs1)C(c1ccccc1)c1ccncc1` (stereo not shown) [Example 6, 2,2-dimethyl-3-phenyl-3-(4-pyridinyl)-N-1,3,4-thiadiazol-2-ylpropanamide], 502%.

For `CC(C)(C(=O)Nc1nccs1)C(c1ccccc1)c1ccncc1` (stereo not shown) [Example 7, 2,2-dimethyl-3-phenyl-3-(4-pyridinyl)-N-1,3-thiazol-2-ylpropanamide], the percent relative binding activity vs dexamethasone at 10 µM came out at 161%. For the compound `CC(C)(C(=O)Nc1nncs1)C(c1ccc(N2CCOCC2)cc1)c1cccs1` (stereo not shown) [Example 11, 2,2-dimethyl-3-(4-(4-morpholinyl)phenyl)-N-1,3,4-thiadiazol-2-yl-3-(2-thienyl)propanamide], the percent relative binding activity vs dexamethasone at 10 µM was determined as 7.4%. `CC(C)(C(=O)Nc1nccs1)C(c1ccc(N2CCOCC2)cc1)c1cccs1` (stereo not shown) [Example 12, 2,2-dimethyl-3-(4-(4-morpholinyl)phenyl)-N-1,3-thiazol-2-yl-3-(2-thienyl)propanamide]: the percent relative binding activity vs dexamethasone at 10 µM came out at 6.1%. As for `CC(C)(C(=O)Nc1nncs1)C(c1ccccc1)c1ccc(N2CCCCC2)nc1` (stereo not shown) [Example 15, 2,2-dimethyl-3-phenyl-3-(6-(1-piperidinyl)-3-pyridinyl)-N-1,3,4-thiadiazol-2-ylpropanamide], the percent relative binding activity vs dexamethasone at 10 µM was 14.7%. Same read-out and setting: as for `CC(C)(C(=O)Nc1nncs1)C(c1ccccc1)c1ccc(N2CCCC2)nc1` (stereo not shown) [Example 16, 2,2-dimethyl-3-phenyl-3-(6-(1-pyrrolidinyl)-3-pyridinyl)-N-1,3,4-thiadiazol-2-ylpropanamide], the figure is 90.4%. With `CC(C)(C(=O)Nc1nncs1)C(c1ccccc1)c1ccc(N2CCC(O)CC2)nc1` (stereo not shown) [Example 17, 3-(6-(4-hydroxy-1-piperidinyl)-3-pyridinyl)-2,2-dimethyl-3-phenyl-N-1,3,4-thiadiazol-2-ylpropanamide], the percent relative binding activity vs dexamethasone at 10 µM was found to be 112%. The same measure, in the same setting: next, `Cc1ccc(CNc2ccc(C(c3ccccc3)C(C)(C)C(=O)Nc3nccs3)cn2)cc1` (stereo not shown) [Example 18, 2,2-dimethyl-3-(6-((4-methylbenzyl)amino)-3-pyridinyl)-3-phenyl-N-1,3-thiazol-2-ylpropanamide]: 37.2%; `COc1ccc(-c2ccc(C(c3ccccc3)C(C)(C)C(=O)Nc3nncs3)cn2)cc1` (stereo not shown) [Example 24, 3-(6-(4-Methoxyphenyl)-3-pyridinyl)-2,2-dimethyl-3-phenyl-N-1,3,4-thiadiazol-2-ylpropanamide]: 16.3%. Still for that read-out and setting: as for `CC(C)(C(=O)Nc1nccs1)C(c1ccccc1)c1ccc(-c2ccoc2)nc1` (stereo not shown) [Example 25, 3-(6-(3-furyl)-3-pyridinyl)-2,2-dimethyl-3-phenyl-N-1,3-thiazol-2-ylpropanamide], the figure is 73.4%; as for `COc1ncc(C(c2ccccc2)C(C)(C)C(=O)Nc2nncs2)cc1Cl` (stereo not shown) [Example 27, 3-(5-chloro-6-methoxy-3-pyridinyl)-2,2-dimethyl-3-phenyl-N-1,3,4-thiadiazol-2-ylpropanamide], 52.8%; as for `CC(C)(C(=O)Nc1nncs1)C(c1ccccc1)c1cnc(N2CCOCC2)c(Cl)c1` (stereo not shown) [Example 28, 3-(5-chloro-6-(4-morpholinyl)-3-pyridinyl)-2,2-dimethyl-3-phenyl-N-1,3,4-thiadiazol-2-ylpropanamide], 187%.

For the origin of these results see patent publication US8222247B2, “Modulators of glucocorticoid receptor, AP-1, and/or NF-kappabeta activity and use thereof” (Bristol-Myers Squibb Company, priority 2006, dated 2012).
